The target in assay [1] is T1, 5-HT2c (Homo sapiens, UniProt P28335).
T1 sequence (P28335 33-458): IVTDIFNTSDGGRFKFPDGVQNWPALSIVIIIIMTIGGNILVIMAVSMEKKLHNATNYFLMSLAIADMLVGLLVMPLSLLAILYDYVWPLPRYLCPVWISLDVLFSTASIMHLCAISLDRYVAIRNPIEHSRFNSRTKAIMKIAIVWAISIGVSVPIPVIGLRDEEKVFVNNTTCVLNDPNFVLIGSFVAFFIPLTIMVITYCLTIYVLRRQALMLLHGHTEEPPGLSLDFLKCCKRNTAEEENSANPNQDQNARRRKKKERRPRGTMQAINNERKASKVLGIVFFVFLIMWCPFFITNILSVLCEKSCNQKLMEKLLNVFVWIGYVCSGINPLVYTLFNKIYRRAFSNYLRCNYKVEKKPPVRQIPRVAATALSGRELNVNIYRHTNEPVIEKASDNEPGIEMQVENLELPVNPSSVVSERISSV
In words: Selectivity binding 5-HT2c. To be noted: read-out: 5-HT2c Selectivity Binding (Ki).

Assay [2] has as its target T2, human 5-HT6 receptor (Homo sapiens, UniProt P50406).
T2 construct: expressed in transfected cells; host or cells: HEK293
Kind of assay: 5-HT6 intrinsic activity assay (inhibition of 5-HT induced increase in cAMP). In kind it is cell-based.

The target in assay [3] is 5-HT2a (Homo sapiens, UniProt P28223). In words: Selectivity binding 5-HT2a. To be noted: read-out: 5-HT2a Selectivity Binding (Ki).
In assay [4] the target is T2, human 5-HT6 receptor. In words: 5-HT6 binding assay ([3H]-LSD, SPA, membranes of transfected HEK293 cells).
The target of assay [5] is 5-HT2b (Homo sapiens, UniProt P41595). Kind of assay: Selectivity binding 5-HT2b.
The target in assay [6] is T3, 5-HT3 (Homo sapiens, UniProt P46098).
T3 construct: expressed in transfected cells; host or cells: HEK-293 cells
T3 sequence (P46098 24-478): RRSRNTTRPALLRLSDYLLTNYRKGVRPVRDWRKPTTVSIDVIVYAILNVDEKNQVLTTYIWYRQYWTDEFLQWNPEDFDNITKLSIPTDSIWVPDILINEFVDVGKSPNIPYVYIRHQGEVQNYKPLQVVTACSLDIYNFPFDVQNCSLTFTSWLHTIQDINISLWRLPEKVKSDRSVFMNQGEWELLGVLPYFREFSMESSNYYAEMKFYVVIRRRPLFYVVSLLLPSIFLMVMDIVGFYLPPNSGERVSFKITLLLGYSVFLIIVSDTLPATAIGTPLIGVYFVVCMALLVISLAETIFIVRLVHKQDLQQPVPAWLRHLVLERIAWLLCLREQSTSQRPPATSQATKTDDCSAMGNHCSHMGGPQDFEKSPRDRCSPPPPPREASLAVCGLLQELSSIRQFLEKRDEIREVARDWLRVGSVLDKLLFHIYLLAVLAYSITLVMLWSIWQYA
Kind of assay: 5-HT3 binding (human recombinant, HEK-293 cells). The conditions noted are these: 1 μM.

For assay [7], the target named is T4, β1 (Homo sapiens, UniProt P08588).
T4 construct: expressed in transfected cells; host or cells: HEK-293 cells
Kind of assay: β1 binding (human recombinant, HEK-293 cells).

Assay [8] concerns the target T5, 5-HT1a (Homo sapiens, UniProt P08908).
T5 sequence (P08908 1-422): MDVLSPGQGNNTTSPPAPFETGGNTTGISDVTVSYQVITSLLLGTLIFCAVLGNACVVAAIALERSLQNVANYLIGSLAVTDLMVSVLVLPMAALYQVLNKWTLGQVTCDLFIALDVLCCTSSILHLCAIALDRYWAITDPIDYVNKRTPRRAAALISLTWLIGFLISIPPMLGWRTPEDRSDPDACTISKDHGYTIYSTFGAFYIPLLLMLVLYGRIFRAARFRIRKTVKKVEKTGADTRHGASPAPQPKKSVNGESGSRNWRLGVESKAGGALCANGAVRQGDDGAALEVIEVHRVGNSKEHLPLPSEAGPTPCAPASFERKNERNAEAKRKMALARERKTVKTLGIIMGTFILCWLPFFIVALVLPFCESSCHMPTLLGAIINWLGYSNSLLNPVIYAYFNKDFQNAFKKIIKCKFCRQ
Kind of assay: Selectivity binding 5-HT1a. To be noted: read-out: 5-HT1a Selectivity Binding (Ki).

Assay [9] has as its target 5-HT1b (Homo sapiens, UniProt P28222). In words: Selectivity binding 5-HT1b. The conditions noted are these: read-out: 5-HT1b Selectivity Binding (Ki).
Assay [10] addresses T6, κ (KOP) (Cavia porcellus, UniProt P41144).
T6 construct: Guinea-pig cerebellum; from tissue; host or cells: guinea-pig cerebellum
Kind of assay: κ (KOP) binding (guinea-pig cerebellum). To be noted: 1 μM.

The target of assay [11] is T7, β2 (Homo sapiens, UniProt P07550).
T7 construct: expressed in transfected cells; host or cells: Sf9 cells
In words: β2 binding (human recombinant, Sf9 cells).

The mark [12] stands for this setting: competition with 3 nM [3H] LSD, HEK293 membranes, read-out: 5-HT6 Binding (Ki).

Data on six compounds can be found in US7582767B2 (Biovitrum AB (publ.), priority 2005, dated 2009).

SMILES strings stand for the structures. pKi: −log10 of the molar value. Counter-ions that a name gives are not always drawn.

Sequence of 5-HT2a (P28223 whole entry, species assumed): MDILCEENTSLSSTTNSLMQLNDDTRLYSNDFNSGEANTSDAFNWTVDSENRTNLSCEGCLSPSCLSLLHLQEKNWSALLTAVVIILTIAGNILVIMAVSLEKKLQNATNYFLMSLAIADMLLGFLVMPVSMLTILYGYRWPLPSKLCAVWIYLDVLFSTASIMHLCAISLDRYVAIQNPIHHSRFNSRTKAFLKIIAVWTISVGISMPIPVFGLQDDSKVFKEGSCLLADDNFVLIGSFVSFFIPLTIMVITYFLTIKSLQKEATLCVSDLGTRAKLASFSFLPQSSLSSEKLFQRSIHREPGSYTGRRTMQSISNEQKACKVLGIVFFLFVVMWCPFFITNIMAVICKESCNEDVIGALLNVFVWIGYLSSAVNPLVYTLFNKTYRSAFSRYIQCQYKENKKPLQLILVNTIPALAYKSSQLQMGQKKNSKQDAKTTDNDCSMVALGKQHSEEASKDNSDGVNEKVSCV
T2 sequence (P50406 whole entry): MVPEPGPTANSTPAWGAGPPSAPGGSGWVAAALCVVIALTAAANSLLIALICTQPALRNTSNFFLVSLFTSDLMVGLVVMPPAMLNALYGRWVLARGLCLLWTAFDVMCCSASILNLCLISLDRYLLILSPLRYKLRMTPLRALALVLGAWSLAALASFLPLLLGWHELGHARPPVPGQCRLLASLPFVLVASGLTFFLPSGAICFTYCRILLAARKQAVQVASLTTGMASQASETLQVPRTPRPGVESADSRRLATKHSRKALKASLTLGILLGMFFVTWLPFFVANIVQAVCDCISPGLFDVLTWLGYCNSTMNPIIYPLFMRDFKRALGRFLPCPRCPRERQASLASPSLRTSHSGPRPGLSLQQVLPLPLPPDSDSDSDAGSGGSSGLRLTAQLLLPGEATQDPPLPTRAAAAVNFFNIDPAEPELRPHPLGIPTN
Sequence of 5-HT2b (P41595 whole entry, species assumed): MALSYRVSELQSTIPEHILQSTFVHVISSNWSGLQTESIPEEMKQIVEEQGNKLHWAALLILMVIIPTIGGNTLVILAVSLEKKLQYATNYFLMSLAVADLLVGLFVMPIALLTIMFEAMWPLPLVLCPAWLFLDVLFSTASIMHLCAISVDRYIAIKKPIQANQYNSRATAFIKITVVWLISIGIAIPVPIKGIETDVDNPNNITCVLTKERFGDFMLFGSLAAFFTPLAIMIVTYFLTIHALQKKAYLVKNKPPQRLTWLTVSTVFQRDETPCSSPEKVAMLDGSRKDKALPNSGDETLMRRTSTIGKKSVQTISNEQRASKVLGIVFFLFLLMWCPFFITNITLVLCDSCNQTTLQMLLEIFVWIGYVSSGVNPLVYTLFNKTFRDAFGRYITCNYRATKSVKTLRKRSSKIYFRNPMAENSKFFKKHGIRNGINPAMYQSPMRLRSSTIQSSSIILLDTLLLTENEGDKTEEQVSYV
T6 sequence (P41144 whole entry): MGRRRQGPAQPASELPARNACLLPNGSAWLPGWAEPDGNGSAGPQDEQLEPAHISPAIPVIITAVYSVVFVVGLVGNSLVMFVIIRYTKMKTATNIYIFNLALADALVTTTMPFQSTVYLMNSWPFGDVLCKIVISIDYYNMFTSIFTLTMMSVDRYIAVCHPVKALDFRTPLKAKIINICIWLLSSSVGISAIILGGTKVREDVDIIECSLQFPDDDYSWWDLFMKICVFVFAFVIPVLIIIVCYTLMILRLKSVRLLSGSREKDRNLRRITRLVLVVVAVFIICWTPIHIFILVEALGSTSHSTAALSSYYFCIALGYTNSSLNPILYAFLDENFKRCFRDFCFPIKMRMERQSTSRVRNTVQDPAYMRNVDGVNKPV
T7 sequence (P07550 whole entry): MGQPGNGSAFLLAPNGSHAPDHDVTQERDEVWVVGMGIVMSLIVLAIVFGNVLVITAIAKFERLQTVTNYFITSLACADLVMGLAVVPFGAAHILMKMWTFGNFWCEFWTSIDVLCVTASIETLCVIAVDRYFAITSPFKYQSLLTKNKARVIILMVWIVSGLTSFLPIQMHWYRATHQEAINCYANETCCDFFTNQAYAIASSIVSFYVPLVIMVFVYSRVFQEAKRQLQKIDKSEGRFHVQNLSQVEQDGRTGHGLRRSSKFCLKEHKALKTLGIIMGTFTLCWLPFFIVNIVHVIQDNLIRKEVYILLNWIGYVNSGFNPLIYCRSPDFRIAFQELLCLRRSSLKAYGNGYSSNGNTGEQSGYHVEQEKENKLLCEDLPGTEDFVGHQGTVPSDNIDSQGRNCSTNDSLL
T4 sequence (P08588 whole entry): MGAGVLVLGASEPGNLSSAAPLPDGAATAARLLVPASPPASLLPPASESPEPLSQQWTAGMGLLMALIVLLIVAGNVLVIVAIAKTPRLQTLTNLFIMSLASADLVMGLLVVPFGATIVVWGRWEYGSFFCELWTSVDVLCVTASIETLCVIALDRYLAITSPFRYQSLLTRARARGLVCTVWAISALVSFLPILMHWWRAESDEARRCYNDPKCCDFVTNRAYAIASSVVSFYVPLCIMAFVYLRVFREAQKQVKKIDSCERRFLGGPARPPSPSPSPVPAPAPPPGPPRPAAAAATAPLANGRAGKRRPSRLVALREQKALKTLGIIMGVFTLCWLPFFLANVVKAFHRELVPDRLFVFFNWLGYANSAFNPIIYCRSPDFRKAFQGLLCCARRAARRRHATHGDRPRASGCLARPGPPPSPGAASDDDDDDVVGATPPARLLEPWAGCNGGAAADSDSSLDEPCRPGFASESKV
Sequence of 5-HT1b (P28222 whole entry, species assumed): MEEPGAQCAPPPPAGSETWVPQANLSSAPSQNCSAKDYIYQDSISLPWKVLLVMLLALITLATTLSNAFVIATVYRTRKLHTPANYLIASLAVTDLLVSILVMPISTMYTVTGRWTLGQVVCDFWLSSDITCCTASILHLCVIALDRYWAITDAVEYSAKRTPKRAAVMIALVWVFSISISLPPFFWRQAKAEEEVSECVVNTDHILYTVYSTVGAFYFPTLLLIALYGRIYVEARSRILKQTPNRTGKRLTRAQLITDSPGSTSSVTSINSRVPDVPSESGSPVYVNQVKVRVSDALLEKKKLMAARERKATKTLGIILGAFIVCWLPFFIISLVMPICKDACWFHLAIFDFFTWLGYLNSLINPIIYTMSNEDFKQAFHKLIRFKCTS

For the compound `COc1cccc(C)c1NS(=O)(=O)c1cc(OC2CCNCC2)c2occc2c1` [Compound C], the pKi – broadly, the Ki on a negative log10 scale, so that one unit is a factor of ten – in assay [1] was 5.90; in assay [2] it was 7.29; in [3] it was 6.00; in assay [4], 7.59; in assay [5], 6.22.
For the compound `Cl.O=S(=O)(Nc1cc(OC2CCNCC2)c2occc2c1)c1ccc(Cl)s1` [Compound A, 5-chlorothiophene-2-sulphonic acid, [7-(piperidin-4-yloxy)-benzofuran-5-yl]amide, hydrochloride], the pKi in [1] is below 6.00; in assay [2], 8.22; in [3], below 6.00; in assay [4] (setting [12]) it was 8.05; in assay [8] it was 5.82; in assay [9], 5.83. This compound gave a pKi in assay [5] of 6.45. For the same compound, the “5-HT3 Binding % inihibition 1 μM” value in [6] was 90%. For the same compound, the “β1 Binding % inihibition 1 μM” value in assay [7] was found to be 80%. The “κ (KOP) Binding % inihibition 1 μM” value in assay [10] turned out to be 71%. For the same compound, the “β2 Binding % inihibition 1 μM” value in assay [11] is listed as 89%.
With `CN1C[C@@H](NS(=O)(=O)N(C)C)C[C@@H]2c3cccc4c3c(cn4C)C[C@H]21` [mesulergide], the pKi in [4] (setting [12]) is 5.71.
For the compound `O=S(=O)(Nc1cc(N2CCNCC2)c2occc2c1)c1cccc2ccccc12` [Ex. 148, N-(7-piperazin-1-yl-benzofuran-5-yl)-1-naphthylsulphonamide, hydrochloride], the pKi was 6.80 in assay [1]; 8.22 in assay [2]; 6.39 in assay [3]; 9.74 in [4] (setting [12]); 7.71 in assay [5].
For `O=S(=O)(Nc1cc(OC2CCNCC2)c2occc2c1)c1ccccc1C(F)(F)F` [Compound B, N-[7-(4-piperidinyloxy)-1-benzofuran-5-yl]-2-trifluoromethylbenzenesulphonamide], the pKi in assay [1] is below 6.00; in [2], 8.52; in assay [3], below 6.00; in [4] (setting [12]) it was 8.40; in assay [8], below 6.00; in assay [9], 5.89. In assay [5], this compound had a pKi of 6.26. The “5-HT3 Binding % inihibition 1 μM” value in assay [6] worked out at 91%. Also, the “β1 Binding % inihibition 1 μM” value in assay [7] was 82%. Moreover, the “κ (KOP) Binding % inihibition 1 μM” value in assay [10] worked out at 83%. Moreover, the “β2 Binding % inihibition 1 μM” value in assay [11] came out at 82%.
Regarding `COc1ccc(C)cc1NS(=O)(=O)c1cc(OC2CCCNC2)c2occc2c1` (centres unmarked) [Compound D], the pKi in [1] was 5.86; in assay [2] it was 7.43; in [3], 6.04; in assay [4] it was 7.85; in [5], 5.84.
